Results taken from publication PMC7705431 (Cell Research, 2020).

Columns and labels:
SARS-CoV-2 = assay type: cell-based
[1] = rhesus monkey, in vivo
[2] = preclinical and clinical studies; cited from earlier work
human ACE2 = target: T1, human ACE2 (Homo sapiens, UniProt Q9BYF1); test: SPR binding to immobilized human ACE2 (BIAcore S200); settings: read-out: ka
T1 construct: purchased Sino Biological Inc. 10108-H08B
Method: The remaining activated sites on the chip were blocked with 75 μL of ethanolamine (1 M, pH 8.5). […] The equilibrium dissociation constant (KD) for binding as well as the association (Ka) and dissociation (Kd) rate constants were determined using the BIA evaluation program (GE, USA).

[3] = cited from earlier work
cathepsin L = target: T2, cathepsin L (Homo sapiens, UniProt P07711); test: Cathepsin L activity assay (fluorometric kit); assay type: biochemical
T2 construct: purchased Abcam ab65306
T2 sequence (P07711 114-333, species assumed): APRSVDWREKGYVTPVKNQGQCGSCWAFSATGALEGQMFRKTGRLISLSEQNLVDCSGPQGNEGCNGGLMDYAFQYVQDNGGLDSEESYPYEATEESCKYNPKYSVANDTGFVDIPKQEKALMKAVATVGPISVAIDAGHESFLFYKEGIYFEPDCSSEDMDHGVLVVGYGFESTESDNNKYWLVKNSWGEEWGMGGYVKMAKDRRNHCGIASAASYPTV
Method: A positive control of cathepsin L inhibitor I (CTSL, MG-101, 20 μM) was provided in the kit. A total of 2 μL of 10 mM Ac-FR-AFC substrate was added to each well. The samples were incubated at 37 °C for 2 h. Fluorescence was measured using a multifunctional microplate reader (Cytation 3, BioTek, Winooski, VT, USA), at an excitation wavelength of 400 nm and an emission wavelength of 505 nm.

[4] = cited from earlier work; remark: listed apart in the source
in vitro = settings: Vero E6 cells
[5] = target: T3, SARS-CoV-2 spike protein–ACE2 interaction (Homo sapiens, UniProt Q9BYF1); test: co-IP of SARS-CoV-2 spike protein with ACE2, western blot; assay type: biochemical; settings: drug 10 μM; western blot with anti-ACE2 antibody
T3 sequence (Q9BYF1 18-740): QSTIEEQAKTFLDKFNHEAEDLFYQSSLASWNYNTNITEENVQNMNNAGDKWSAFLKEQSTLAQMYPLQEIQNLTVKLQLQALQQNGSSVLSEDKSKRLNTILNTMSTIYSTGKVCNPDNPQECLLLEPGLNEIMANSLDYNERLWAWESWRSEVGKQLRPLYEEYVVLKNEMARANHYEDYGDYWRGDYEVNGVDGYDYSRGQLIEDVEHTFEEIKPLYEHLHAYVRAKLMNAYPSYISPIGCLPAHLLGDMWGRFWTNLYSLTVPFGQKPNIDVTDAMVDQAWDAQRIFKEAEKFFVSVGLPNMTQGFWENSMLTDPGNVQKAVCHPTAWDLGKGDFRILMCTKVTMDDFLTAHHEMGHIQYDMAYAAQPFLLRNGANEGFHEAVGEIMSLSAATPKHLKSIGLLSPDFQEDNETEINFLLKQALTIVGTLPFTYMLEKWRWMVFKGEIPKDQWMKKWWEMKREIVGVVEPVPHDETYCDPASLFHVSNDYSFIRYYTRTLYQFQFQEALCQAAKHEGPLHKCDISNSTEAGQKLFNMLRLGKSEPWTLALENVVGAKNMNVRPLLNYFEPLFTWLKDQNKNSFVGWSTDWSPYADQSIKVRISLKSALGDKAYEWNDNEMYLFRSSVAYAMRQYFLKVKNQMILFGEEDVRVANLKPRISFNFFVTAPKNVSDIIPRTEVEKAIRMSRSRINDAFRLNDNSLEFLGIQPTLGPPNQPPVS
Method: Co-IP was performed as follows. […] The blots were incubated with anti-rabbit IgG HRP (KPL, USA) and imaged using electrochemiluminescence (ECL, ThermoFisher, USA).

[6] = target: T3, SARS-CoV-2 spike protein–ACE2 interaction; test: ELISA of SARS-CoV-2 spike protein binding to ACE2 crosslinked to microplates; assay type: biochemical; settings: drug 1 μM; 1 h 37 °C

T1 sequence (Q9BYF1 18-805): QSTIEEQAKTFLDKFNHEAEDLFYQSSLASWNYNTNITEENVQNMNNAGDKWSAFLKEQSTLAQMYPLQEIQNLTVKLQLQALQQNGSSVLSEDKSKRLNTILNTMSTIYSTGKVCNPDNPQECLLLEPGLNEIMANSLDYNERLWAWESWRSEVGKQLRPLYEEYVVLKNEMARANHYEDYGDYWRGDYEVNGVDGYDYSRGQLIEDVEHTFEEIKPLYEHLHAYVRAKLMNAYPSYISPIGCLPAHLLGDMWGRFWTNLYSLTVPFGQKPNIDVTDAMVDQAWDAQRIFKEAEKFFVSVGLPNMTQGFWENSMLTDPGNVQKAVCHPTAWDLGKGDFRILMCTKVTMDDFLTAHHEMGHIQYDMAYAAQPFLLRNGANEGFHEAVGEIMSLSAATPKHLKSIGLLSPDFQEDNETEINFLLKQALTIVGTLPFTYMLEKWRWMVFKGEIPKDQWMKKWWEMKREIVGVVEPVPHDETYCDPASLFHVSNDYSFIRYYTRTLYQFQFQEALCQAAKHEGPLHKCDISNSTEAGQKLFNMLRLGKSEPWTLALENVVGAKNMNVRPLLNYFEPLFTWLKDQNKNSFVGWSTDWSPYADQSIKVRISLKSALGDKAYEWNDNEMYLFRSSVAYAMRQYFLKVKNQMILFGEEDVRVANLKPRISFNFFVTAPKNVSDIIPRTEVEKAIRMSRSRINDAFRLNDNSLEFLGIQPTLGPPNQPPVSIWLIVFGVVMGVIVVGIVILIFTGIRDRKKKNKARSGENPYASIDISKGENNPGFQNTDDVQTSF

CCC(CC)COC(=O)[C@H](C)N[P@](=O)(OC[C@H]1O[C@@](C#N)(c2ccc3c(N)ncnn23)[C@H](O)[C@@H]1O)Oc1ccccc1 [Remdesivir]
inhibition of CPEs (SARS-CoV-2): significantly inhibited the CPEs

CN[C@H]1C(=O)N[C@@H]2Cc3ccc(cc3)Oc3cc4cc(c3O[C@@H]3O[C@H](C(=O)O)[C@@H](O)[C@H](O)[C@H]3NC(=O)CCCCCCCCC(C)C)Oc3ccc(cc3Cl)[C@@H](O)[C@@H]3NC(=O)[C@H](NC(=O)[C@@H]4NC(=O)[C@@H](NC2=O)c2cc(cc(O)c2Cl)Oc2cc1ccc2O)c1ccc(O)c(c1)-c1c(O[C@H]2O[C@H](CO)[C@@H](O)[C@H](O)[C@@H]2O)cc(O)cc1[C@@H](C(=O)NCCCN(C)C)NC3=O [dalbavancin]
serum half-life [1]: 5 to 7 days
tolerability [2]: well tolerated
kon (human ACE2): 360000 M⁻¹ s⁻¹
plasma half-life [3]: 5 to 7 days
inhibition at 400 µM (cathepsin L; read-out: inhibition of cathepsin L enzymatic activity): ~40%
protein-bound in plasma [4]: > 90%
CC50 (in vitro): > 3.2 µM

Oxiglutatione
suppression of SARS-CoV-2 spike protein–ACE2 co-precipitation [5]: suppressed the interaction
inhibition of binding of SARS-CoV-2 spike protein to ACE2 (ELISA) [6]: inhibited the binding

Polymyxin B sulfate
suppression of SARS-CoV-2 spike protein–ACE2 co-precipitation [5]: suppressed the interaction

cathepsin L inhibitor I
inhibition of cathepsin L enzymatic activity (cathepsin L; 20 μM, positive control, Ac-FR-AFC substrate, 37 °C 2 h): ~ 100%
